Measured values published in patent US7279444B2, “Substituted benzoylpyrazoles” (Bayer CropScience GmbH, priority 1999, dated 2007).
Read-outs that look alike come from different tables or passages of the source. Marks after values point to notes of the source that are not given here.

How the values were obtained:
[1] = log P by HPLC on reversed-phase column (C 18), acidic range; format: physicochemical
Protocol: Temperature: 43° C. […] The log P values given in Table 3 were determined in accordance with EEC Directive 79/831 Annex V.A8 by HPLC (High Performance Liquid Chromatography) on a reversed-phase column (C 18). Temperature: 43° C. […] The log P values given in Tables 4 were determined in accordance with EEC Directive 79/831 Annex V.A8 by HPLC (High Performance Liquid Chromatography) on a reversed-phase column (C 18). Temperature: 43° C.

weeds [2] = test: Pre-emergence test, activity against weeds; format: in vivo; conditions: soil sprayed about 24 hours after sowing, rated after three weeks
Protocol: (§1) Pre-Emergence Test Solvent: 5 parts by weight of acetone Emulsifier: 1 part by weight of alkylaryl polyglycol ether To produce a suitable preparation of active compound, 1 part by weight of active compound is mixed with the stated amount of solvent, the stated amount of emulsifier is added and the concentrate is diluted with water to the desired concentration. Seeds of the test plants are sown in normal soil. After about 24 hours, the soil is sprayed with the preparation of active compound such that the particular amount of active compound is applied per unit area. The concentration of the spray liquor is chosen such that the particular amount of active compound desired is applied in 1000 liters of water per hectare. After three weeks, the degree of damage to plants is rated in % damage in comparison to the development of the untreated control. The figures denote: • 0%=no effect (like untreated control) • 100%=total destruction

[3] = tested on: crop plants such as, for example, corn; test: Pre-emergence test, tolerance by crop plants; format: in vivo; conditions: rated after three weeks
Protocol: as §1

weeds [4] = test: Post-emergence test, activity against weeds; format: in vivo; conditions: test plants of 5-15 cm sprayed, rated after three weeks
Protocol: Solvent: 5 parts by weight of acetone
Emulsifier: 1 part by weight of alkylaryl polyglycol ether
To produce a suitable preparation of active compound, 1 part by weight of active compound is mixed with the stated amount of solvent, the stated amount of emulsifier is added and the concentrate is diluted with water to the desired concentration.
Test plants of a height of 5-15 cm are sprayed with the preparation of active compound such that the particular amounts of active compound are applied per unit area. The concentration of the spray liquor is chosen such that the particular amounts of active compound desired are applied in 10001 of water/ha.
After three weeks, the degree of damage to the plants is rated in % damage in comparison to the development of the untreated control.
• 0%=no effect (like untreated control) • 100%=total destruction

[5] = marked a): acidic range, 0.1% aqueous phosphoric acid/acetonitrile gradient, HPLC reversed-phase C 18, 43° C., Table 1

Structure (SMILES)	logP [1]	further results
CCOc1nn(Cc2cc(C(F)(F)F)ccc2C(=O)c2cnn(CC)c2O)c(=O)n1C [Example 2]	–	logP [1, 5]: logP = 2.34^a); activity against weeds (degree of damage) (weeds [2]): strong activity; tolerance by crop plants [3]: tolerated well; activity against weeds (degree of damage) (weeds [4]): strong activity
CCn1ncc(C(=O)c2ccc(C(F)(F)F)cc2Cn2nc(SC)n(C)c2=O)c1O [Example 3]	–	logP [1, 5]: logP = 2.22^a); activity against weeds (degree of damage) (weeds [2]): strong activity; tolerance by crop plants [3]: tolerated well; activity against weeds (degree of damage) (weeds [4]): strong activity
Cn1c(C(F)(F)F)nn(Cc2c(Cl)ccc(C(=O)O)c2Cl)c1=O [III-3, 4-methyl-5-trifluoromethyl-2-(2,6-dichloro-3-carboxy-benzyl)-2,4-dihydro-3H-1,2,4-triazol-3-one]	–	melting point: 207 °C
COC(=O)c1ccc(Cl)c(Cn2nc(C(F)(F)F)n(C)c2=O)c1Cl [IV-2, 4-methyl-5-trifluoromethyl-2-(2,6-dichloro-3-methoxycarbonyl-benzyl)-2,4-dihydro-3H-1,2,4-triazol-3-one]	–	melting point: 109 °C
COC(=O)c1ccc(Cl)c(Cn2nc(OC)n(C3CC3)c2=O)c1Cl [IV-15]	logP = 2.36^a)	–
CCOc1nn(Cc2c(Cl)ccc(C(=O)OC)c2Cl)c(=O)n1C1CC1 [IV-16]	logP = 2.73^a)	–
COC(=O)c1ccc(Cl)c(Cn2nc(OC(C)C)n(C3CC3)c2=O)c1Cl [IV-17]	logP = 3.08^a)	–
COC(=O)c1ccc(Cl)c(Cn2nc(OCC(F)(F)F)n(C3CC3)c2=O)c1Cl [IV-18]	logP = 3.05^a)	–
COC(=O)c1ccc(Cl)c(Cn2nc(SC)n(C3CC3)c2=O)c1Cl [IV-19]	logP = 2.70^a)	–
COC(=O)c1ccc(Cl)c(Cn2nc(C)n(C3CC3)c2=O)c1Cl [IV-20]	logP = 1.97^a)	–
COC(=O)c1ccc(Cl)c(Cn2nc(N(C)C)n(C3CC3)c2=O)c1Cl [IV-21]	logP = 2.42^a)	–
CCOn1c(CC)nn(Cc2c(Cl)ccc(C(=O)OC)c2Cl)c1=O [IV-22]	logP = 2.58^a)	–
COC(=O)c1ccc(Cl)c(CN2CCN(C)C2=O)c1Cl [IV-23]	logP = 1.98^a)	–
COC(=O)c1ccc(Cl)c(CN2CCCN(C)C2=O)c1Cl [IV-24]	logP = 2.07^a)	–
COC(=O)c1ccc(Cl)c(CN2C(=O)c3ccccc3S2(=O)=O)c1Cl [IV-25]	logP = 2.94^a)	–
CCOC(=O)c1ccc(S(C)(=O)=O)cc1CN1C(=O)CCC1=O [IV-33]	logP = 1.53^a)	–

Structure (SMILES)	logP [1]	further results
CCOC(=O)c1ccc(Br)cc1Cn1nc(CC)n(OCC)c1=O [IV-34]	logP = 3.24^a)	–
CCOC(=O)c1ccc(Br)cc1Cn1nc(C(F)(F)F)n(C)c1=O [IV-35]	logP = 3.40^a)	–
CCOC(=O)c1ccc(F)c(Cn2nc(Br)n(C)c2=O)c1 [IV-36]	logP = 2.41^a)	–
CCOC(=O)c1ccc(F)cc1Cn1nc(SC)n(C)c1=O [IV-37]	logP = 2.45^a)	–
CCOC(=O)c1ccc(Br)c(Cn2nc(C)n(C)c2=O)c1 [IV-38]	logP = 2.06^a)	–
CCOC(=O)c1ccc(Br)c(Cn2nc(Br)n(C)c2=O)c1 [IV-39]	logP = 2.64^a)	–
CCOC(=O)c1ccc(Br)c(Cn2nc(C(F)(F)F)n(C)c2=O)c1 [IV-40]	logP = 3.23^a)	–
CCOC(=O)c1ccc(Br)c(Cn2nc(C3CC3)n(C3CC3)c2=O)c1 [IV-41]	logP = 3.02^a)	–
CCOC(=O)c1ccc(Cl)cc1Cn1nc(OCC)n(C2CC2)c1=O [IV-42]	logP = 3.23^a)	–
CCOC(=O)c1ccc(Cl)cc1Cn1nc(C(F)(F)F)n(C)c1=O [IV-43]	logP = 3.31^a)	–
CCOC(=O)c1ccc(Cl)cc1Cn1nc(CC)n(OCC)c1=O [IV-44]	logP = 3.14^a)	–
CCOC(=O)c1ccc([N+](=O)[O-])cc1Cn1nc(OCC)n(C2CC2)c1=O [IV-45]	logP = 2.42^a)	–
CCOC(=O)c1ccc([N+](=O)[O-])cc1Cn1nc(SC)n(C)c1=O [IV-46]	logP = 2.82^a)	–
CCOC(=O)c1ccc(C(F)(F)F)cc1Cn1nc(OCC)n(C2CC2)c1=O [IV-47]	logP = 3.48^a)	–
CCOC(=O)c1ccc(C(F)(F)F)cc1Cn1nc(CC)n(OCC)c1=O [IV-48]	logP = 3.38^a)	–

Second part, led by results:

logP [1]	Structure (SMILES)	further results
logP = 3.02^a)	CCOC(=O)c1ccc(C(F)(F)F)cc1Cn1nc(SC)n(C)c1=O [IV-49]	–
logP = 3.91^a)	CCCOC(=O)c1ccc(C(F)(F)F)cc1Cn1nc(OCC)n(C2CC2)c1=O [IV-50]	–
logP = 2.95^a)	CCOC(=O)c1ccc(Br)cc1Cn1nc(OCC)n(C)c1=O [IV-58]	–
logP = 2.44^a)	CCOC(=O)c1ccc(Br)cc1CN1C(=O)CCC1=O [IV-60]	–
logP = 3.34^a)	CCOC(=O)c1ccc(Br)cc1Cn1nc(OC(C)C)n(C)c1=O [IV-65]	–
logP = 3.38^a)	CCCOc1nn(Cc2cc(Br)ccc2C(=O)OCC)c(=O)n1C [IV-66]	–
logP = 3.31^a)	CCOC(=O)c1ccc(Br)cc1Cn1nc(OCC(F)(F)F)n(C)c1=O [IV-67]	–
logP = 2.16^a)	CCOC(=O)c1ccc(Br)cc1Cn1nc2n(c1=O)CCC2 [IV-68]	–
logP = 2.41^a)	CCOC(=O)c1ccc(Br)cc1Cn1nc2n(c1=O)CCCC2 [IV-69]	–
logP = 3.51^a)	CCOC(=O)c1ccc(C(F)(F)F)cc1Cn1nc(OC(C)C)n(C)c1=O [IV-70]	–
logP = 3.54^a)	CCCOc1nn(Cc2cc(C(F)(F)F)ccc2C(=O)OCC)c(=O)n1C [IV-71]	–
logP = 2.36^a)	CCOC(=O)c1ccc(Br)cc1CN1CCOC1=O [IV-72]	–
logP = 2.88^a)	CCOC(=O)c1ccc(Br)cc1Cn1nc(C)oc1=O [IV-73]	–
logP = 2.68^a)	CCOC(=O)c1ccc(C(F)(F)F)cc1Cn1cnn(C)c1=O [IV-74]	–
logP = 2.80^a)	CCOC(=O)c1ccc(Br)cc1Cn1nc(Br)n(C)c1=O [IV-75]	–
logP = 2.88^a)	CCOC(=O)c1ccc(C(F)(F)F)cc1Cn1nc(COC)n(C2CC2)c1=O [IV-77]	–
logP = 2.60^a)	CCOC(=O)c1ccc(C(F)(F)F)cc1Cn1nc(COC)n(C)c1=O [IV-78]	–
logP = 3.35^a)	CCOC(=O)c1ccc(C(F)(F)F)cc1Cn1nc(Br)n(C2CC2)c1=O [IV-79]	–

logP [1]	Structure (SMILES)	further results
logP = 2.86^a)	CCOC(=O)c1ccc(Br)cc1Cn1nc(SC)n(C)c1=O [IV-80]	–
logP = 2.83^a)	CCOC(=O)c1ccc(Cl)cc1Cn1nc(SC)n(C)c1=O [IV-81]	–
logP = 2.60^a)	CCOC(=O)c1ccc(Br)cc1Cn1nc(N(C)C)n(C)c1=O [IV-82]	–
logP = 2.79^a)	CCOC(=O)c1ccc(C(F)(F)F)cc1Cn1nc(N(C)C)n(C)c1=O [IV-85]	–
logP = 3.45^a)	CCOC(=O)c1ccc(C(F)(F)F)cc1Cn1nc(OCC(F)(F)F)n(C)c1=O [IV-93]	–
logP = 2.21^a)	CCOC(=O)c1ccc(F)cc1Cn1nc(N(C)C)n(C)c1=O [IV-94]	–
logP = 2.96^a)	CCCOc1nn(Cc2cc(F)ccc2C(=O)OCC)c(=O)n1C [IV-95]	–
logP = 2.05^a)	CCOC(=O)c1ccc(F)cc1Cn1nc(COC)n(C)c1=O [IV-96]	–
logP = 2.50^a)	CCOC(=O)c1ccc(F)cc1Cn1nc(OC)n(C2CC2)c1=O [IV-97]	–
logP = 2.89^a)	CCOC(=O)c1ccc(F)cc1Cn1nc(OCC)n(C2CC2)c1=O [IV-98]	–
logP = 2.91^a)	CCOC(=O)c1ccc(C(F)(F)F)cc1CN1N=C(C)C(C)(C)C1=O [IV-99]	–
logP = 2.58^a)	CCOC(=O)c1ccc(C(F)(F)F)cc1Cn1c(=O)n(C)c(=O)n1C [IV-113]	–
logP = 1.53^a)	COC(=O)c1ccc(S(C)(=O)=O)cc1Cn1nc(SC)n(C)c1=O [IV-114]	–
logP = 1.59^a)	CCOc1nn(Cc2cc(S(C)(=O)=O)ccc2C(=O)OC)c(=O)n1C [IV-115]	–
logP = 2.68^a)	CCOc1nn(Cc2cc(I)ccc2C(=O)OC)c(=O)n1C [IV-116]	–
logP = 2.74^a)	CCOc1nn(Cc2cc(C(F)(F)F)ccc2C(=O)OC)c(=O)n1C [IV-117]	–
logP = 2.65^a)	COC(=O)c1ccc(C(F)(F)F)cc1Cn1nc(SC)n(C)c1=O [IV-118]	–
logP = 2.96^a)	CCOC(=O)c1ccc(C(F)(F)F)cc1Cn1nc(Br)n(C)c1=O [IV-119]	–
